Data: patent US12122787B2, “Fused pyridone compound, and preparation method therefor and use thereof” (SHANGHAI JEMINCARE PHARMACEUTICALS CO., LTD, priority 2019, dated 2024)
Like-named read-outs stand apart in the source and are kept apart here.

What was measured:
Assay type in all cases: cell-based
[1] = tested on: NCI-H358 cells expressing KRAS-G12C; test: Growth inhibition of tumor cell line expressing KRAS-G12C (Cell Titer Glo), NCI-H358
Protocol: (§1) The ability of the compounds of the present disclosure to inhibit the growth of cells expressing KRAS-G12C was evaluated by measuring the cell viability and calculating the GI50 values.
(§2) The tumor cell line NCI-H358 (ATCC catalogue number CRL-5807) expressing KRAS-G12C was cultured in RPMI medium supplemented with 10% fetal bovine serum and penicillin/streptomycin, and the tumor cell line MIA PaCa2 (ATCC CRL-1420) expressing KRAS-G12C was cultured in DMEM medium supplemented with 10% fetal bovine serum, 2.5% horse serum, and penicillin/streptomycin.
(§3) Cells NCI-H358 and MIA-Paca2 were inoculated into black transparent bottom 384-well plate (PerkinElmer catalogue number 6007460) with cell density of 1000 and 800 respectively, and the cells were allowed to adhere to the wall overnight (8-12 hours). After the cells adhered to the wall, the experimental group was added with the compound of the present disclosure diluted 5 times the concentration of the working solution (final concentration containing 0.1% dimethyl sulfoxide, i.e. DMSO); the control group was added with the same dilution as the experimental group (final concentration containing 0.1% DMSO). After 72 hours, Cell Titer Glo reagent (Promega catalogue number G7572) was used to detect ATP content according to the instruction method to determine the amount of cell proliferation. The brief operation steps were as follows: the cell plate was taken out and kept at normal temperature for equilibrium for 30 minutes; Cell Titer Glo reagent with the same volume as the culture was added; the culture plate was placed on a shaker for shaking and cracking for 2 minutes; the culture plate was left to stand at room temperature for 10 minutes; then the light signal value was read by microplate reader EnVision (PerkinElmer).
(§4) Data from all experimental groups were used to calculate the respective percent inhibition using the DMSO group, and the GI50 was calculated using the data processing software GraphPad to analyze the inhibition rates produced by the 9 compound dose concentrations diluted at ⅓-fold ratio.

[2] = tested on: MIA PaCa2 cells expressing KRAS-G12C; test: Growth inhibition of tumor cell line expressing KRAS-G12C (Cell Titer Glo), MIA PaCa2; settings: MIA-Paca2, 72 hours
Protocol: as §1, §2, §3, §4

[3] = tested on: phosphorylated ERK (Thr202/Tyr204) in NCI-H358 cells expressing mutant RAS(G12C); test: Inhibition of RAS-mediated signal transduction: phosphorylated ERK ELISA in NCI-H358 cells; settings: NCI-H358 cells, 2 hours of treatment, pERK normalized by Janus Green B, read-out: p-ERK IC50 (NCI H358)
Protocol: The cells were treated with or without the compound of the present disclosure (dimethyl sulfoxide, DMSO), and the final concentration of DMSO was guaranteed to be 0.5%. After 2 hours of treatment, the medium was removed and 4% paraformaldehyde (Beyotime catalog number E672002-0100) was added and left to stand for 20 minutes. Cells were washed with PBS after fixation and incubated with precooled methanol for 10 min to permeabilize the cell membrane.
The level of phosphorylated ERK was detected using an enzyme linked immunosorbent assay (ELISA) method. […] The plates were washed 5 times with PBS containing 0.05% Tween 20. […] The reaction was stopped by adding 1 mol/L H2SO4, and the OD value was read at 450 nm by EnVision (PerkinElmer).
The total number of cells per well was detected by Janus Green B staining method. After detecting the level of phosphorylated ERK, the 96-well plate was washed with PBS until colorless, and 0.1% Janus Green B (Abcam catalogue number ab111622) was added to incubate for 10 minutes. After the 96-well plate was washed with double distilled water, 0.1 mol/L HCl was added, then the mixture was shaked and incubated for 10 minutes. The OD value was read at 595 nm by EnVision (PerkinElmer).
The signal of pERK (Thr202/Tyr204) was normalized by the signal value of Janus Green B, and the inhibition percentage after drug treatment relative to DMSO reference was calculated. The percentage values were fitted by a four-parameter dose-response curve and generated IC50 values.

Row | Structure (SMILES) | GI50 ([1]; Homo sapiens, NCI-H358, 72 h) | GI50 ([2]; Homo sapiens, MIA PaCa-2, 72 h) | IC50 ([3]; Homo sapiens, NCI-H358, 2 h) | GI50 ([1]; NCI-H358, 72 hours) | GI50 [2] | IC50 [3]
1 | C=CC(=O)N1C[C@@H]2CN(C)c3c(c4cc(F)c(-c5c(O)cccc5F)nc4n(-c4ccccc4C(C)C)c3=O)N2C[C@H]1C [Compound 10A] | 184 nM | 496 nM | 63 nM |  |  | 
2 | C=CC(=O)N1C[C@@H]2COc3c(c4cc(Cl)c(-c5c(O)cccc5F)c(F)c4n(-c4c(C)ccnc4C(C)C)c3=O)N2C[C@H]1C [Compound 18A-1] |  |  |  | 2 nM | 10 nM | 4 nM
3 | C=CC(=O)N1C[C@@H]2COc3c(c4cc(Cl)c(-c5c(O)cccc5F)c(F)c4n(-c4c(C)ccnc4C(C)C)c3=O)N2C[C@H]1C [Compound 18A] |  |  |  | 6 nM | 13 nM | 5 nM
4 | C=CC(=O)N1C[C@@H]2COc3c(c4cc(Cl)c(-c5c(O)cccc5F)c(F)c4n(-c4c(C)ccnc4C(C)C)c3=O)N2C[C@H]1C [Compound 18B-1] |  |  |  | 21 nM | 66 nM | 36 nM
5 | C=CC(=O)N1C[C@@H]2COc3c(c4cc(F)c(-c5c(O)cccc5F)c(F)c4n(-c4c(C(C)C)ncnc4C(C)C)c3=O)N2C[C@H]1C [Compound 19A] | 8 nM | 14 nM | 8 nM |  |  | 
6 | C=CC(=O)N1C[C@@H]2C(=O)N(C)c3c(c4cc(F)c(-c5c(O)cccc5F)c(F)c4n(-c4c(C(C)C)ncnc4C(C)C)c3=O)N2C[C@H]1C [Compound 20A] | 4 nM | 10 nM | 4 nM |  |  | 
7 | C=CC(=O)N1C[C@@H]2C(=O)N(C)c3c(c4cc(F)c(-c5c(O)cccc5F)c(F)c4n(-c4c(C(C)C)ncnc4C(C)C)c3=O)N2C[C@H]1C [Compound 20B] |  |  |  | 413 nM | 1600 nM | 264 nM
8 | C=CC(=O)N1C[C@@H]2C(=O)N(C)c3c(c4cc(F)c(-c5c(O)cccc5F)c(F)c4n(-c4c(C)ccnc4C(C)C)c3=O)N2C[C@H]1C [Compound 21A-1] | 91 nM | 156 nM |  |  |  | 104 nM
9 | C=CC(=O)N1C[C@@H]2C(=O)N(C)c3c(c4cc(F)c(-c5c(O)cccc5F)c(F)c4n(-c4c(C)ccnc4C(C)C)c3=O)N2C[C@H]1C [Compound 21A-2] |  |  |  | 10 nM | 34 nM | 15 nM
10 | C=CC(=O)N1C[C@@H]2C(=O)Nc3c(c4cc(F)c(-c5c(O)cccc5F)c(F)c4n(-c4c(C)ccnc4C(C)C)c3=O)N2C[C@H]1C [Compound 22A-1] |  |  |  | 28 nM | 85 nM | 60 nM
11 | C=CC(=O)N1C[C@@H]2C(=O)Nc3c(c4cc(F)c(-c5c(O)cccc5F)c(F)c4n(-c4c(C)ccnc4C(C)C)c3=O)N2C[C@H]1C [Compound 22A] |  |  |  | 10 nM | 24 nM | 16 nM
12 | C=CC(=O)N1C[C@@H]2C(=O)N(C)c3c(c4cc(Cl)c(-c5c(O)cccc5F)c(F)c4n(-c4c(C)ccnc4C(C)C)c3=O)N2C[C@H]1C [Compound 23A-1] | 104 nM | 281 nM | 111 nM |  |  | 
13 | C=CC(=O)N1C[C@@H]2C(=O)N(C)c3c(c4cc(Cl)c(-c5c(O)cccc5F)c(F)c4n(-c4c(C)ccnc4C(C)C)c3=O)N2C[C@H]1C [Compound 23A-2] |  |  |  | 3 nM | 14 nM | 3 nM
14 | C=CC(=O)N1CC2C(=O)N(CCN(C)C)c3c(c4cc(F)c(-c5c(O)cccc5F)c(F)c4n(-c4c(C)ccnc4C(C)C)c3=O)N2CC1C (stereo not drawn) [Compound 24B] |  |  |  | 68 nM | 112 nM | 75 nM
15 | C=CC(=O)N1CC2C(=O)N(CCN(C)C)c3c(c4cc(F)c(-c5c(O)cccc5F)c(F)c4n(-c4c(C)ccnc4C(C)C)c3=O)N2CC1C (stereo not drawn) [Compound 24C] |  |  |  | 11 nM | 23 nM | 12 nM
16 | C=CC(=O)N1CC2C(=O)N(CCN(C)C)c3c(c4cc(F)c(-c5c(O)cccc5F)c(F)c4n(-c4c(C)ccnc4C(C)C)c3=O)N2CC1C (stereo not drawn) [Compound 24D] |  |  |  | 232 nM | 407 nM | 246 nM

Row | Structure (SMILES) | GI50 ([1]; Homo sapiens, NCI-H358, 72 h) | GI50 ([2]; Homo sapiens, MIA PaCa-2, 72 h) | IC50 ([3]; Homo sapiens, NCI-H358, 2 h) | GI50 ([1]; NCI-H358, 72 hours) | GI50 [2] | IC50 [3]
17 | C=CC(=O)N1C[C@@H]2C(=O)N(C)c3c(c4cc(Cl)c(-c5c(O)cccc5F)nc4n(-c4c(C)ccnc4C(C)C)c3=O)N2C[C@H]1C [Compound 25A] | 10 nM | 29 nM | 14 nM |  |  | 
18 | C=CC(=O)N1C[C@@H]2C(=O)N(C)c3c(c4cc(F)c(-c5c(C)ccc6[nH]nc(N)c56)c(F)c4n(-c4c(C)ccnc4C(C)C)c3=O)N2C[C@H]1C [Compound 28A] | 7 nM | 9 nM | 6 nM |  |  | 
19 | C=CC(=O)N1C[C@@H]2C(=O)N(CCN(C)C)c3c(c4cc(Cl)c(-c5c(O)cccc5F)nc4n(-c4c(C)ccnc4C(C)C)c3=O)N2C[C@H]1C [Compound 29A] | 44 nM | 67 nM | 124 nM |  |  | 
20 | C=CC(=O)N1C[C@@H]2C(=O)N(CCN(C)C)c3c(c4cc(Cl)c(-c5c(F)cccc5OC)nc4n(-c4c(C)ccnc4C(C)C)c3=O)N2C[C@H]1C [Compound 30A] | 208 nM | 231 nM | 170 nM |  |  | 
21 | C=CC(=O)N1C[C@@H]2C(=O)N(C)c3c(c4cc(F)c(-c5c(C)ccc6[nH]ncc56)c(F)c4n(-c4c(C)ccnc4C(C)C)c3=O)N2C[C@H]1C [Compound 32A] | 442 nM | 604 nM | 274 nM |  |  | 
22 | C=CC(=O)N1C[C@@H]2CN(CCCO)c3c(c4cc(F)c(-c5c(O)cccc5F)c(F)c4n(-c4c(C)ccnc4C(C)C)c3=O)N2C[C@H]1C [Compound 35A] |  | 2140 nM |  | 53 nM |  | 68 nM
23 | C=CC(=O)N1C[C@@H]2CN(CCO)c3c(c4cc(F)c(-c5c(O)cccc5F)c(F)c4n(-c4c(C)ccnc4C(C)C)c3=O)N2C[C@H]1C [Compound 36A-1] | 32 nM | 235 nM | 16 nM |  |  | 
24 | C=CC(=O)N1C[C@@H]2CN(CCC(C)O)c3c(c4cc(F)c(-c5c(O)cccc5F)c(F)c4n(-c4c(C)ccnc4C(C)C)c3=O)N2C[C@H]1C (stereo partly drawn) [Compound 37A] | 66 nM | 392 nM | 70 nM |  |  | 
25 | C=CC(=O)N1C[C@@H]2CN(CC(=O)OC)c3c(c4cc(F)c(-c5c(O)cccc5F)c(F)c4n(-c4c(C)ccnc4C(C)C)c3=O)N2C[C@H]1C [Compound 38B] | 77 nM | 535 nM |  |  |  | 64 nM
26 | C=CC(=O)N1C[C@@H]2C(=O)N(CCO)c3c(c4cc(F)c(-c5c(O)cccc5F)c(F)c4n(-c4c(C)ccnc4C(C)C)c3=O)N2C[C@H]1C [Compound 40A] | 62 nM | 56 nM | 52 nM |  |  | 
27 | C=CC(=O)N1C[C@@H]2C(=O)N(CCCO)c3c(c4cc(F)c(-c5c(O)cccc5F)c(F)c4n(-c4c(C)ccnc4C(C)C)c3=O)N2C[C@H]1C [Compound 41A] | 530 nM | 2240 nM | 942 nM |  |  | 
28 | C=CC(=O)N1C[C@@H]2C(=O)N(C)c3c(c4cc(Cl)c(-c5c(F)cccc5OC)c(F)c4n(-c4c(C)ccnc4C(C)C)c3=O)N2C[C@H]1C [Compound 42A] | 9 nM | 228 nM | 9 nM |  |  | 
29 | C=CC(=O)N1C[C@@H]2CN(CC(N)=O)c3c(c4cc(F)c(-c5c(O)cccc5F)c(F)c4n(-c4c(C)ccnc4C(C)C)c3=O)N2C[C@H]1C [Compound 44A] | 424 nM | 1570 nM | 580 nM |  |  | 
30 | C=CC(=O)N1C[C@@H]2C(=O)N(C)c3c(c4cc(Cl)c(-c5c(O)cccc5F)c(F)c4n(-c4c(C)ncnc4C(C)C)c3=O)N2C[C@H]1C [Compound 49A] | 4 nM | 9 nM | 4 nM |  |  | 
31 | C=CC(=O)N1C[C@@H]2C(=O)N(C)c3c(c4cc(Cl)c(-c5c(F)cccc5OC)c(F)c4n(-c4c(C)ncnc4C(C)C)c3=O)N2C[C@H]1C [Compound 50] | 62 nM | 94 nM | 41 nM |  |  | 
